Experimental data taken from the CheMixHub viscosity set.

Test: xn = mol fraction of the nth substance listed

OCc1ccccc1 + CCCO
viscosity [mPa·s], 101 kPa
Settings | x1 = 0.0744 | x1 = 0.1531 | x1 = 0.2366 | x1 = 0.3252 | x1 = 0.4196 | x1 = 0.5203 | x1 = 0.6278 | x1 = 0.7431 | x1 = 0.8668
298.15 K | 2.038 | 2.197 | 2.401 | 2.651 | 2.932 | 3.25 | 3.593 | 3.99 | 4.433
303.15 K | 1.796 | 1.918 | 2.083 | 2.288 | 2.52 | 2.783 | 3.071 | 3.404 | 3.776
308.15 K | 1.587 | 1.687 | 1.828 | 2.002 | 2.201 | 2.429 | 2.678 | 2.967 | 3.292
313.15 K | 1.368 | 1.447 | 1.562 | 1.709 | 1.877 | 2.07 | 2.282 | 2.53 | 2.807

NCCO + CCO
viscosity [mPa·s], 100 kPa
Settings | x1 = 0.1 | x1 = 0.2 | x1 = 0.3 | x1 = 0.4 | x1 = 0.5 | x1 = 0.6 | x1 = 0.7 | x1 = 0.8 | x1 = 0.9
303.15 K | 1.33 | 1.73 | 2.3 | 3.05 | – | 5.37 | 7.03 | – | 11.6
313.15 K | 1.11 | 1.42 | 1.83 | 2.34 | 3.05 | 3.93 | 5.03 | 6.32 | 7.87
323.15 K | 0.967 | 1.19 | 1.47 | 1.85 | 2.34 | 2.95 | 3.7 | 4.54 | 5.57

CCC(=O)CC + CCOC(=O)OCC
viscosity [mPa·s], 101 kPa
Settings | x2 = 0.0893 | x2 = 0.1498 | x2 = 0.2601 | x2 = 0.3555 | x2 = 0.4667 | x2 = 0.5689 | x2 = 0.6701 | x2 = 0.7565 | x2 = 0.8858 | x2 = 0.9501
303.15 K | 0.452 | 0.468 | 0.496 | 0.521 | 0.55 | 0.578 | 0.606 | 0.631 | 0.668 | 0.686
308.15 K | 0.417 | 0.431 | 0.457 | 0.481 | 0.509 | 0.535 | 0.563 | 0.586 | 0.622 | 0.641
313.15 K | 0.405 | 0.417 | 0.439 | 0.459 | 0.484 | 0.508 | 0.532 | 0.554 | 0.589 | 0.607

NCCO + CN1CCCC1=O
viscosity [mPa·s], 101 kPa
Settings | 293.15 K | 298.15 K | 303.15 K | 308.15 K | 313.15 K | 318.15 K | 323.15 K
x1 = 0.1558 | 2.99 | 2.712 | 2.484 | 2.293 | 2.133 | 1.996 | –
x1 = 0.3001 | 3.547 | 3.176 | 2.869 | 2.612 | 2.397 | 2.218 | 2.065
x1 = 0.4204 | 4.72 | 4.121 | 3.633 | 3.236 | 2.909 | 2.638 | 2.415
x2 = 0.2076 | – | – | 10.07 | – | 6.755 | – | 5.018
x2 = 0.4003 | – | – | 6.647 | – | 4.811 | – | 3.622
x2 = 0.5994 | – | – | 4.361 | – | 3.317 | – | 2.559
x2 = 0.7992 | – | – | 2.604 | – | 2.118 | – | 1.799

CN1CCCC1=O + CN(C)C=O
viscosity [mPa·s], 101 kPa
Settings | x2 = 0.1003 | x2 = 0.2001 | x2 = 0.2997 | x2 = 0.4 | x2 = 0.5007 | x2 = 0.595 | x2 = 0.7 | x2 = 0.8 | x2 = 0.9003
303.15 K | 1.417 | 1.328 | 1.249 | 1.17 | 1.085 | 1.018 | 0.943 | 0.872 | 0.809
313.15 K | 1.231 | 1.152 | 1.085 | 1.02 | 0.948 | 0.891 | 0.832 | 0.775 | 0.721
323.15 K | 1.097 | 1.024 | 0.967 | 0.908 | 0.846 | 0.794 | 0.742 | 0.692 | 0.646

CCC(=O)CC + CN(C)c1ccccc1
viscosity [mPa·s], 101 kPa
Settings | 303.15 K | 308.15 K
x2 = 0.0612 | 0.548 | 0.499
x2 = 0.1145 | 0.645 | 0.588
x2 = 0.1652 | 0.732 | 0.668
x2 = 0.2302 | 0.832 | 0.764
x2 = 0.3025 | 0.928 | 0.859
x2 = 0.3741 | 1.006 | 0.935
x2 = 0.4256 | 1.053 | 0.98
x2 = 0.5023 | 1.105 | 1.029
x2 = 0.5714 | 1.137 | 1.056
x2 = 0.6325 | 1.155 | 1.069
x2 = 0.7045 | 1.165 | 1.074
x2 = 0.7812 | 1.167 | 1.073
x2 = 0.8512 | 1.165 | 1.073

CCC(=O)CC + COC(=O)c1ccccc1
viscosity [mPa·s], 101 kPa
Settings | x2 = 0.0869 | x2 = 0.176 | x2 = 0.2669 | x2 = 0.3636 | x2 = 0.4616 | x2 = 0.5586 | x2 = 0.6631 | x2 = 0.7718 | x2 = 0.8792
303.15 K | 0.486 | 0.557 | 0.634 | 0.722 | 0.822 | 0.932 | 1.07 | 1.235 | 1.422
313.15 K | 0.43 | 0.485 | 0.548 | 0.619 | 0.7 | 0.79 | 0.896 | 1.025 | 1.169

OCc1ccccc1 + Cc1ccccc1
viscosity [mPa·s]
Settings | 293.15 K | 303.15 K | 313.15 K | 323.15 K
100 kPa, x1 = 0.1006 | 0.699 | – | – | –
100 kPa, x1 = 0.1997 | 0.851 | – | – | –
100 kPa, x1 = 0.3007 | 1.051 | – | – | –
100 kPa, x1 = 0.402 | 1.329 | – | – | –
100 kPa, x1 = 0.502 | 1.717 | – | – | –
100 kPa, x1 = 0.6 | 2.158 | – | – | –
100 kPa, x1 = 0.6925 | 2.764 | – | – | –
100 kPa, x1 = 0.7994 | 3.659 | – | – | –
100 kPa, x1 = 0.8995 | 4.821 | – | – | –
101 kPa, x2 = 0.0973 | – | 3.563 | 2.793 | 2.117
101 kPa, x2 = 0.1952 | – | 2.788 | 2.237 | 1.73
101 kPa, x2 = 0.2937 | – | 2.226 | 1.781 | 1.403
101 kPa, x2 = 0.3927 | – | 1.758 | 1.44 | 1.157
101 kPa, x2 = 0.4924 | – | 1.386 | 1.15 | 0.9401
101 kPa, x2 = 0.5927 | – | 1.107 | 0.9561 | 0.7918
101 kPa, x2 = 0.6936 | – | 0.8989 | 0.7776 | 0.6576
101 kPa, x2 = 0.7951 | – | 0.7359 | 0.6508 | 0.5456
101 kPa, x2 = 0.8972 | – | 0.6154 | 0.5511 | 0.4771

Nc1ccccc1[N+](=O)[O-] + ClC(Cl)(Cl)Cl
viscosity [mPa·s], 101 kPa
Settings | 303.15 K | 308.15 K | 313.15 K | 318.15 K | 323.15 K
x1 = 0.02174 | 0.8952 | 0.8298 | 0.7841 | 0.7321 | 0.6886
x1 = 0.08489 | – | 1 | 0.9361 | 0.874 | 0.8093
